{"source": "patent US7659366B2", "about": "“Peptide with putative role in cytoskeletal protection” (priority 2005, dated 2010)", "target": "T1, G-actin (pyrene-labeled) (Oryctolagus cuniculus, UniProt P68135)", "T1 construct": "purchased Cytoskeleton, Inc., Colorado", "test": "In vitro polymerization of pyrene-labeled G-actin", "type": "biochemical", "settings": "buffer G with 1 mM MgCl2; conjugate 50 μg/ml, phalloidin 4 μM", "description": "In vitro polymerization of G-actin was performed according to the method of Maul and coworkers (Maul et al., 2003).\nThis in vitro assay is based on the enhanced fluorescence of pyrene-conjugated actin that occurs during polymerization in vitro.\nFor conducting the polymerization assay, general actin buffer containing pyrene actin and ATP was added to the wells. Then polymerization buffer, samples (P34 free peptide, P33 free peptide, P34BSA and P33BSA), and phalloidin (as positive control) were added to the wells. Then fluorescence intensity was read with a spectrophotometer (Excitation: 360 nm; Emission: 410 nm). The reading was done for 15 minutes with intervals of 30 seconds.\nFor the assay to determine inhibition of polymerization, all the wells contained polymerization buffer to initiate polymerization. […]\nAs mentioned above, in vitro polymerization of G-actin was performed according to the method of Maul and coworkers (Maul et al., 2003). […] 5 μl samples were applied on a microscope slide, and examined by fluorescence microscopy.\nP34BSA was tested for the capacity to inhibit or induce actin polymerization. […] The fluorescence intensity of the mixture was read with a microplate fluorescence reader (FL600, Bio-Tek®; Ex. 360 nm, +/−20 nm bandwidth; Em. 410 nm, +/−10 nm bandwidth). The emissions were recorded for 15 min at 30 sec intervals. […]", "note": "Numbered stars: 1 amine (or outer) side, 2 acyl side, 3 side chain; on linkers, the order of the positions; unused ones are H or OH. Bridge positions count the residues as written; N and C are the ends. Square brackets hold non-standard residues; d marks the D form. Peptide text beside a SMILES is read from it. Trp(2-yl) = O=C([C@H](Cc1c([*:3])[nH]c2ccccc12)N[*:1])[*:2]; Leu(4R-OH,5-OH) = C[C@](O)(CO)C[C@H](N)C(=O)O; cisHyp = O=C(O)[C@@H]1C[C@H](O)CN1", "data": [{"smiles": "C[C@@H]1NC(=O)[C@H](C[C@@](C)(O)CO)NC(=O)[C@@H]2Cc3c([nH]c4ccccc34)SC[C@H](NC(=O)[C@@H]([C@H](C)O)NC1=O)C(=O)N1C[C@@H](O)C[C@H]1C(=O)N[C@@H](C)C(=O)N2", "note": "[phalloidin] (cyclo(A[dT]C[cisHyp]A[Trp(2-yl)][Leu(4R-OH,5-OH)]); thioether 3-6)", "values": [{"measurement": "induction of actin polymerization", "result": "able to promote polymerization"}]}]}
